{"source": "patent US20040170622A1", "about": "“Methods and compositions for modulating XBP-1 activity” (President and Fellows of Harvard College, priority 2002, published 2004)", "molecules": {"B1": {"name": "XBP-1s: vector encoding only the spliced form of murine XBP-1, a protein of 371 aa (protein)", "chain": "MVVVAAAPSAATAAPKVLLLSGQPASGGRALPLMVPGPRAAGSEASGTPQARKRQRLTHLSPEEKALRRKLKNRVAAQTARDRKKARMSELEQQVVDLEEENHKLQLENQLLREKTHGLVVENQELRTRLGMDTLDPDEVPEVEAKGSGVRLVAGSAESAAGAGPVVTSPEHLPMDSDTVASSDSESDILLGILDKLDPVMFFKCPSPESASLEELPEVYPEGPSSLPASLSLSVGTSSAKLEAINELIRFDHVYTKPLVLEIPSETESQTNVVVKIEEAPLSSSEEDHPEFIVSVKKEPLEDDFIPELGISNLLSSSHCLRPPSCLLDAHSDCGYEGSPSPFSDMSSPLGTDHSWEDTFANELFPQLISV"}, "B2": {"name": "dn-XBP: dominant negative XBP-1 containing the N-terminal 188 aa, lacking transactivation domain, retaining leucine zipper (protein)", "chain": "MVVVAAAPSAATAAPKVLLLSGQPASGGRALPLMVPGPRAAGSEASGTPQARKRQRLTHLSPEEKALRRKLKNRVAAQTARDRKKARMSELEQQVVDLEEENHKLQLENQLLREKTHGLVVENQELRTRLGMDTLDPDEVPEVEAKGSGVRLVAGSAESAAGAGPVVTSPEHLPMDSDTVASSDSESD"}}, "type_in_all_cases": "cell-based", "key": {"[1]": {"test_system": "XBP-1u and XBP-1s proteins", "assay": "XBP-1u and XBP-1s protein levels in J558 cells (Western blot)", "procedure": "(A) BiP and CHOP induction was examined by northern blot analysis after treating NIH3T3 or J558 myeloma cells with either MG-132 (20 μM), Tm (10 μg/ml) or both. Cells were pretreated with MG-132 for 1 hr and then further treated with Tm for 4 hrs. Ethidium bromide staining of the gel is shown at the bottom. (B) Inhibition of caspase-12 processing by proteasome inhibitors. Processing of full-length caspase-12 was examined by Western blotting in J558 myeloma cells treated with thapsigargin (1 μM) or PIs (20 μM) during the indicated time periods. (C) Alteration in the ratio of XBP-1 protein species in J558 cells were treated with increasing amounts of MG-132 for 16 hrs. Cells undergoing apoptosis were counted by Annexin V staining. (D) Time course of the XBP-1s to XBP-1u shift. Cells were treated with MG-132 (1 μM) for the indicated times and XBP-1u and spliced protein levels and cell death determined. (E) Alteration in the ratio of XBP-1 species in the MM.1s human myeloma line. Cells were treated with PS-341 (8 nM) in a time course analysis and XBP-1 protein species quantified.\nCells were lysed in RIPA buffer (50 mM Tris pH 7.4, 150 mM NaCl, 1 mM EDTA, 1% Triton X-100, 1% sodium deoxycholate, 0.1% SDS) and lysates subjected to SDS-PAGE and transferred to Hybond P membrane (Amersham-Pharmacia, Piscataway, N.J.). […] HeLa cells were cotransfected with XBP-1u and His-tagged ubiquitin expression plasmids (pMT 107, D. Bohmann, EMBL, Germany) by using the Lipofectamine-2000 reagent (Invitrogen, Carlsbad, Calif.). […] Degradation rates of XBP-1u and XBP-1s proteins were determined by pulse labeling J558 cells with ^35S Met/Cys for 1 hr and chasing for the indicated times."}, "[2]": {"test_system": "spliced XBP-1", "assay": "Inhibition of transactivation function of spliced XBP-1, luciferase in NIH 3T3 cells", "settings": "NIH 3T3, 200 ng spliced XBP-1, 200 ng mutant", "procedure": "Versions of XBP-1 with various deletions of the C terminal transcription activating domain (e.g., consisting of the N terminal 225, 188, or 136 amino acids of the spliced form of XBP-1) that expressed high levels of protein by western analysis were created. The proteins were tested for their ability to inhibit the transactivation function of spliced XBP-1. Both the 188 and 136 N terminal mutants were extremely potent inhibitors (effective at a 1:1 ratio) of the spliced XBP-1. NIH 3T3 cells expressing XBP-1uc constructs were transfected with 200 ng of spliced XBP-1, yielding a relative luciferase activity of 44.5. 200 ng of XBP-N188 lowered the luciferase level to 1.8 and 200 ng of XBP-N136 lowered the luciferase activity to 2.2."}, "[3]": {"test_system": "XBP-1", "assay": "XBP-1 dependent gene expression in dn-XBP / iXBP transduced J558 cells (Northern, Western blot)", "excerpt": "(A) Synergistic effect of Tm and MG-132 on apoptosis. Annexin V positive cells were counted after treating J558 cells for 18 hrs with suboptimal concentrations of Tm and MG-132 as indicated. (B) J558-iXBP cells were generated by retroviral transduction of J558 cells with the U6 promoter based XBP-1 RNAi vector. (C) XBP-1 dependent gene expression in J558 cells that express control GFP, dn-XBP or iXBP-1 treated with Tm. Generation of dn-XBP-1 J558 cells by infection with a retrovirus containing dn-XBP cDNA inserted into the GFP-RV vector (N. N. lwakoshi et al., Nature Immunology 4, 321-329 (2003)). ERdj4, p58^IPK, BiP and CHOP gene expression were examined by Northern blot analysis. (D) Increased apoptosis in iXBP-1 and dn-XBP-1 expressing J558 cells. Cells were treated with the indicated amounts of Tm for 48 hrs and dead cells counted after Annexin V staining.\nTotal RNA was prepared by using Trizol reagent, electrophoresed on 1.2% agarose, 6% formaldehyde gels and then transferred onto Genescreen Plus membrane, (NEN, Boston, Mass.). […] Probes for ERdj4 and p58^IPK were generated from cDNA excised from EST clones (ATCC, Manassas, Va.) using appropriate restriction enzymes (ERdj4, IMAGE: 1920927; p58^IPK, IMAGE:2646147). […]"}}, "note": "Where a SMILES comes first, the peptide text is derived from it. The star is where a group is joined. Cbz = O=C(OCc1ccccc1)*"}
{"molecule": "CC(C)C[C@@H](C=O)NC(=O)[C@H](CC(C)C)NC(=O)[C@H](CC(C)C)NC(=O)OCc1ccccc1", "note": "[MG-132] (Cbz-Leu-Leu-Leu-aldehyde)", "values": [{"measurement": "XBP-1s protein level, time course", "setting": "[1]; J558, MG-132 1 μM", "result": "rapidly declined after 4 hours of treatment and was barely detectable by 16 hours"}, {"measurement": "onset of XBP-1u increase", "setting": "[1]; J558, MG-132 1 μM", "result": "as early as one hour post treatment"}, {"measurement": "time of XBP-1u peak", "setting": "[1]; J558, MG-132 1 μM", "result": 8, "unit": "h"}, {"measurement": "XBP-1u accumulation and XBP-1s decrease", "setting": "[1]; J558 cells, 16 hrs", "result": "striking accumulation of XBP-1 u and a concomitant decrease in XBP-1s proteins"}]}
{"molecule": "B1", "values": [{"measurement": "relative luciferase activity", "setting": "[2]", "result": 44.5}]}
{"molecule": "B2", "values": [{"measurement": "induction of BiP and CHOP by Tm", "setting": "[3]", "result": "minimally affected"}, {"measurement": "induction of ERdj4 and p58IPK by Tm", "setting": "[3]", "result": "greatly reduced induction of XBP-1-dependent UPR target genes, ERdj4 and p58^IPK"}]}
